≈ marks a conversion by molar mass, not a printed value. Where only a bound is given, the exact number is not on record here.

Data set [1] is described as follows: Drug concentration in DIO mouse brain at 10 mg/kg, po measured for 24 hrs. Format: ADME, organism-based. The note with it: in vivo, po, 10 mg/kg, 24 h, BLD = below limit of detection.
Data set [2] is described as follows: Drug concentration in DIO mouse adipose tissue at 10 mg/kg, po measured for 6 hrs. To be noted: read-out: Drug uptake. Format: ADME, organism-based.
A short description of data set [3]: Drug concentration in DIO mouse brain at 10 mg/kg, po measured for 6 hrs relative to plasma concentration. Format: ADME, organism-based.
Data set [4] is described as follows: Drug concentration in DIO mouse plasma at 10 mg/kg, po measured for 6 hrs. Format: ADME, organism-based.
Data set [5] is described as follows: Lipophilicity, logD of compound by chromatographic analysis. Format: physicochemical.
For data set [6], the target named is T1, Cannabinoid receptor 1 (Homo sapiens, UniProt P21554). The data set is described as follows: Inverse agonist activity at human CB1 receptor expressed in CHO-K1 cell membrane by GTP-gamma-S assay. Type of data set: functional, cell membranes.
T1 sequence (P21554 whole entry): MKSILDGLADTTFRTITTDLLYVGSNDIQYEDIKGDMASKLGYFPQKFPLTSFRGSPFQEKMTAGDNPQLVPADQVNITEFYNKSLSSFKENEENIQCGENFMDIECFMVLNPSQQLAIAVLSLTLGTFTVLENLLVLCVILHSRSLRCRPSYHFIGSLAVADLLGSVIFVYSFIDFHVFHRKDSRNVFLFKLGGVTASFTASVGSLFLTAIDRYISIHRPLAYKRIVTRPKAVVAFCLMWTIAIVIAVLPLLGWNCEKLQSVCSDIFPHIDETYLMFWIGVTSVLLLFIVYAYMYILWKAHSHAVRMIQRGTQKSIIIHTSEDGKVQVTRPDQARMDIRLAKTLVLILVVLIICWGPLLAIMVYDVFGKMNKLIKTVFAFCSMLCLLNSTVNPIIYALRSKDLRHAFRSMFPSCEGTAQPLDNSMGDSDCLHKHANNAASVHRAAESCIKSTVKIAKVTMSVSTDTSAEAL
For data set [7], the target named is T1, Cannabinoid receptor 1. The data set is described as follows: Inverse agonist activity at human CB1 receptor expressed in African green monkey COS7 cells co-expressing G-protein in presence of CP55940 by IP3 assay. Type of data set: functional, cell membranes, Membrane.
A short description of data set [8]: Drug concentration in DIO mouse adipose tissue at 10 mg/kg, po measured for 6 hrs relative to plasma concentration. Format: ADME, organism-based. The note with it: other tissue.
The target of another data set is Cannabinoid receptor 2 (Homo sapiens, UniProt P34972). The data set is described as follows: Inverse agonist activity at human CB2 receptor expressed in CHO-K1 cell membrane in presence of CP55940 by GTP-gamma-S assay. Format: functional, cell membranes.
Sequence of Cannabinoid receptor 2 (P34972 whole entry): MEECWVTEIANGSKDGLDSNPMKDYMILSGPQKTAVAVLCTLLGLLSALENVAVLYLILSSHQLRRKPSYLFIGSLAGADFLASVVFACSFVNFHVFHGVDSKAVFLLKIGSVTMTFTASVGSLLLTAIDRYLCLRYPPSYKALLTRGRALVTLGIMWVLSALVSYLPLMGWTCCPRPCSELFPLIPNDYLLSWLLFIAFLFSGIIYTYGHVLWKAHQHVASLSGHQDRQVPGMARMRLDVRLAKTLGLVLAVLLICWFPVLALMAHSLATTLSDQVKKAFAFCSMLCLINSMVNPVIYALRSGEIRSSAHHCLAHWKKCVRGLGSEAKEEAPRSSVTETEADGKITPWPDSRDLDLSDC
Data set [9] is described as follows: Subchronic toxicity in DIO mouse assessed as reduction in body weight at 10 mg/kg, po measured after 7 days. Type of data set: organism-based. The arrangement: scale not given: the % may be the effect or the level left. The note with it: in vivo, 168 h, time 7 day.
Data set [10] in a line: Drug concentration in DIO mouse liver at 10 mg/kg, po measured for 6 hrs. Format: ADME, organism-based. The note with it: read-out: Drug uptake.
Data set [11] deals with T1, Cannabinoid receptor 1. The data set is described as follows: Antagonist activity at human CB1 receptor expressed in CHO-K1 cell membrane in presence of CP55940 by GTP-gamma-S assay. Type of data set: functional, cell membranes.
The nature of data set [12]: Drug concentration in DIO mouse brain at 10 mg/kg, po measured for 6 hrs. Type of data set: ADME, organism-based. To be noted: read-out: Drug uptake.
Data set [13] is described as follows: Efflux ratio of permeability in human Caco-2 cells. Format: ADME, cell-based. On the technique in general: Passage across Caco-2 layers is used to estimate intestinal permeability.
Data set [14] is described as follows: Cmax in NMRI mouse at 10 mg/kg, po. Type of data set: ADME, organism-based. Further details: dose 10 mg/kg, route po. The note with it: in vivo.
A short description of data set [15]: Clearance in NMRI mouse at 2 mg/kg, iv. The note with it: in vivo. Format: ADME, organism-based.
The nature of data set [16]: Protein binding in NMRI mouse plasma. Format: ADME, cell-free. The note with it: read-out: PPB.
The nature of data set [17]: Tmax in NMRI mouse at 10 mg/kg, po. Format: ADME, organism-based. The note with it: in vivo.
Data set [18] is described as follows: Volume of distribution at steady state in NMRI mouse at 2 mg/kg, iv. To be noted: in vivo, read-out: Vdss. Format: ADME, organism-based.
Data set [19] in a line: Half life in NMRI mouse at 2 mg/kg, iv. Format: ADME, organism-based. To be noted: in vivo.
Data set [20] can be described thus: Half life in NMRI mouse at 10 mg/kg, po. Type of data set: ADME, organism-based. The note with it: in vivo.
Data set [21] in a line: Oral bioavailability in NMRI mouse at 10 mg/kg. Type of data set: ADME, organism-based. The note with it: in vivo.
Data set [22] in a line: Drug concentration in NMRI mouse brain relative to plasma concentration. Format: ADME, tissue-based.
A short description of data set [23]: In vivo inverse agonist activity at CB1 receptor in DIO mouse assessed as efficacy at 10 mg/kg, po measured after 6 hrs. Format: functional.
A short description of data set [24]: Drug concentration in DIO mouse adipose tissue assessed as fold increase at 10 mg/kg, po measured for 6 hrs relative to plasma concentration. Type of data set: ADME, organism-based. The note with it: read-out: FC.
Data set [25] can be described thus: Solubility of compound. Format: physicochemical.
The nature of data set [26]: Clearance in rat hepatocytes assessed per million cells. Type of data set: ADME, cell-based, Hepatocyte.
In another data set the target is CYP2C9 (Homo sapiens, UniProt P11712). The data set is described as follows: Inhibition of CYP2C9 (unknown origin) at 10 uM relative to control. Type of data set: ADME.
Sequence of CYP2C9 (P11712 whole entry): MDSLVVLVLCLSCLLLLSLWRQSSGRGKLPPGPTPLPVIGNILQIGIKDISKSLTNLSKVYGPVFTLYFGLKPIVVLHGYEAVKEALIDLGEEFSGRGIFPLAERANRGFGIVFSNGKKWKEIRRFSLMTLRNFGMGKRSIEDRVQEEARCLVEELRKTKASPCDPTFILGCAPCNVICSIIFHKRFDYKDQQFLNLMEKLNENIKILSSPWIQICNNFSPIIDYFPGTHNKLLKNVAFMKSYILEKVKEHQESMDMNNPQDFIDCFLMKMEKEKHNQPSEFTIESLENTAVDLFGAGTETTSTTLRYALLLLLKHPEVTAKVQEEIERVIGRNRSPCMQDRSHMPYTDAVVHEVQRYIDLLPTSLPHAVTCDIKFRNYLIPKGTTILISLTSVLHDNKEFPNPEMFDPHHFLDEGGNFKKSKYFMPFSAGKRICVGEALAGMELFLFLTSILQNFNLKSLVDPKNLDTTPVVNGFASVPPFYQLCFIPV
The next data set concerns the target hERG (Homo sapiens, UniProt Q12809). The data set is described as follows: Inhibition of hERG at 10 uM by patch clamp assay relative to control. Type of data set: toxicity. (hERG is a cardiac potassium channel; its block is linked to QT prolongation.)

Sequence of hERG (Q12809 whole entry): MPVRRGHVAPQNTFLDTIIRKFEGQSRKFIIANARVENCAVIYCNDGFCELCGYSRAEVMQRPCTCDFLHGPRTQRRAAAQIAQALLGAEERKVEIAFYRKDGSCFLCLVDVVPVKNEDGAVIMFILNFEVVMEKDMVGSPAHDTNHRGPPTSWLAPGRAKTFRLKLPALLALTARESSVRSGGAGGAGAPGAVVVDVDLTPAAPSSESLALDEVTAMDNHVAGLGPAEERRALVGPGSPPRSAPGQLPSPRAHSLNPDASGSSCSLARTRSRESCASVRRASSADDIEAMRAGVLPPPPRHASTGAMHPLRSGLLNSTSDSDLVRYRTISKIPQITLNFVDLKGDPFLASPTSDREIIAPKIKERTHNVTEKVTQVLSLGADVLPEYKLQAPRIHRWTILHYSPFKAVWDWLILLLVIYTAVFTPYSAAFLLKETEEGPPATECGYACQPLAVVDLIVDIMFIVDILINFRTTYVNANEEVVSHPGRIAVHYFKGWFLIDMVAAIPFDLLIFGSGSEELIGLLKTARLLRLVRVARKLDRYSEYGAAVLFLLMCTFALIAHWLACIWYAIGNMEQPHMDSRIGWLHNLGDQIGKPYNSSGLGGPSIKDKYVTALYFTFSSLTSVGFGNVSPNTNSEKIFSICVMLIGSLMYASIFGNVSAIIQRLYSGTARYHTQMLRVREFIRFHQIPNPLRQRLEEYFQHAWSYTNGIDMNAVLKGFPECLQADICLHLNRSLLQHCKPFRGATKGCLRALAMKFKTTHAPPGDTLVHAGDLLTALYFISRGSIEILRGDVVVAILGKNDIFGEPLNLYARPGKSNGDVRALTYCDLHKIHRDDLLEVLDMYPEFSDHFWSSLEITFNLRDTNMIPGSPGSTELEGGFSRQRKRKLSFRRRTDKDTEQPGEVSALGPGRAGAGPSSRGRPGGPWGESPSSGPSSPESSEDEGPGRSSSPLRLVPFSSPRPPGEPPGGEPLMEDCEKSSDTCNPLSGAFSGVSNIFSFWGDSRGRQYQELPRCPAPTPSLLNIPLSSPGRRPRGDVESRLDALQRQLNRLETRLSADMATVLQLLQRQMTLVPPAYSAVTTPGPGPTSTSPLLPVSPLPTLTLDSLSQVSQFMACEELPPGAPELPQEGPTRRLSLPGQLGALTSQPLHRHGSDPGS

In general, chromatographic logD refers to lipophilicity estimated from chromatographic retention. Usually IC50 stands for the midpoint of a concentration-inhibition curve. Consider `O=C(O)Cc1c(C(=O)N2CCC(c3ccc(F)cc3)CC2)nn(-c2ccccc2Cl)c1-c1ccc(Cl)cc1`, for which the Drug uptake result in data set [1] was “Bld”; in [3], 0.8%; in [8] it was 4%. Besides, the concentration at 6 h was 0.35 µM in data set [2], 9 µM in [4], 9.5 µM in [10] and 0.07 µM in [12]. For the same compound, the chromatographic logD in data set [5] was determined as 2.7. In addition, the IC50 at Cannabinoid receptor 1 [6] was 300 nM; on Cannabinoid receptor 1 [7], 18 nM; at Cannabinoid receptor 2, > 10000 nM; at Cannabinoid receptor 1 [11] it was 18 nM. The Activity in data set [9] turned out to be 0.2%.
One may read the efflux ratio as the permeability from basolateral to apical divided by that in the opposite direction, in the common usage. As a reminder, the Cmax is the highest concentration seen after dosing. As a reminder, the clearance is the rate of elimination divided by the concentration. The Tmax is the time from dosing to the highest level. What is called half-life is how long it takes for the measured level to halve. As usually defined, the bioavailability is dose-corrected exposure relative to a reference, in per cent. Consider `O=C(O)Cc1c(C(=O)N2CCC(c3ccccc3F)CC2)nn(-c2ccccc2Cl)c1-c1ccc(Cl)cc1`, for which the Drug uptake result in [1] was “Bld”; in data set [3], 0.6%; in [8] it was 4%; in [22], ~ 1%. Further, the efflux ratio in data set [13] turned out to be 1.3. The concentration at 6 h in [2] was found to be 1.5 µM; in data set [4] it was 38 µM; in data set [10], 10 µM; in data set [12] it was 0.22 µM. In data set [5], this compound displayed a chromatographic logD of 2.6. In addition, the half-inhibitory concentration (IC50) on Cannabinoid receptor 1 [6] was 51 nM; on Cannabinoid receptor 1 [7] it was 2.9 nM; on Cannabinoid receptor 2, > 10000 nM; at Cannabinoid receptor 1 [11], 4.8 nM. In [14], this compound yielded a Cmax of 47 µM. Moreover, the clearance in [15] turned out to be 2.1 mL/min/kg. Besides, the fraction unbound in data set [16] is < 0.01. The time of peak concentration (Tmax) in [17] worked out at 0.5 h. In data set [18], the Vd amounted to 0.6 L/kg. Moreover, the Activity in data set [9] is recorded as 6.4%. For the same compound, the results for the half-life in data set [19] and in data set [20] were 3.1 h and 2.2 h, respectively. The bioavailability in data set [21] came out at 88%.
Take `C[C@@H](NC(=O)c1nn(-c2ccccc2Cl)c(-c2ccc(Cl)cc2)c1Cc1nn[nH]n1)c1ccc(OC(F)(F)F)cc1`: the concentration at 6 h amounted to 4 µM in data set [2], 12 µM in [4], 35 µM in [10] and 0.16 µM in data set [12]. The Drug uptake in [3] was 1.3%. Further, the chromatographic logD in [5] stood at 2.9. Besides, in data set [23], the Efficacy was found to be 11%. Moreover, the 50% inhibitory concentration (IC50) at Cannabinoid receptor 1 [6] is 21 nM; on Cannabinoid receptor 1 [7], 4.8 nM; on Cannabinoid receptor 2, > 10000 nM; at Cannabinoid receptor 1 [11], 9.6 nM. For the same compound, in data set [24], the Kp at 6 h amounted to 5. In addition, the Activity in data set [9] came out at 11.8%.
Turning to `N=C(N)Cc1c(C(=O)Nc2ccc(F)cc2)nn(-c2ccccc2Cl)c1-c1ccc(Cl)cc1`, in data set [5], the chromatographic logD came out at 2.5. Further, the IC50 on Cannabinoid receptor 2 is > 10000 nM.
The solubility is the dissolved amount per volume that the medium holds. Broadly, the inhibition is the change of the read-out against control, counted positive when it falls. On to `O=C(c1nn(-c2ccccc2Cl)c(-c2ccc(Cl)cc2)c1Cc1nn[nH]n1)N1CCC(Oc2ccc(OC(F)(F)F)cc2)CC1`, for which the solubility in data set [25] amounted to 115 µM (≈ 75.7 µg/mL). In [26], this compound returned a CLH of 14 µL/min/1e6 cells. This compound also registered a chromatographic logD in data set [5] of 3. Moreover, 10 µM produced 48% inhibition at CYP2C9. For the same compound, the 50% inhibitory concentration (IC50) at Cannabinoid receptor 1 [6] worked out at 64 nM; on Cannabinoid receptor 1 [7], 26 nM.
On to `NC(=O)Cc1c(C(=O)NC2CCN(C(=O)C3CC3)CC2)nn(-c2ccccc2Cl)c1-c1ccc(Cl)cc1`, for which, in [25], the concentration in solution (solubility) was 81 µM (≈ 43.8 µg/mL). The same compound displayed an inhibition at 10 µM against hERG of 24%. In data set [26], this compound came in with a CLH of 18 µL/min/1e6 cells.
